The conditions of series [1]: in phosphate buffer pH 6.8 + 0.003% Tween 80, 10% methanol, 25 °C.
The nature of series [2]: Moisture sorption isotherm (DVS). Type of series: physicochemical. The conditions noted are these: between 10 to 90 % RH, RH step of 5% RH. Here is the method: The moisture sorption isotherms were recorded with a SPS-11 moisture sorption analyzer (MD Messtechnik, Ulm, Germany). […] The equilibrium condition for each step was set to a mass constancy of ±0.002 % over 40 min.

The results in this text go back to EP4538262A1, “COCRYSTALS OF VORASIDENIB” (SANDOZ AG, priority 2023, dated 2025).

For `CC(Nc1nc(NC(C)C(F)(F)F)nc(-c2cccc(Cl)n2)n1)C(F)(F)F.O=C(O)CC(=O)O` (centres unmarked) [Vorasidenib malonic acid cocrystal], the “time of transformation to vorasidenib dihydrate” value in series [1] is given as “ten”.

For the molecule `C[C@@H](Nc1nc(N[C@H](C)C(F)(F)F)nc(-c2cccc(Cl)n2)n1)C(F)(F)F.C[C@@H](Nc1nc(N[C@H](C)C(F)(F)F)nc(-c2cccc(Cl)n2)n1)C(F)(F)F.O.O=C(O)/C=C/C(=O)O` [vorasidenib fumaric acid cocrystal], the DVS water content result in series [2] is recorded as “not more than 2.0 % by weight”.
